# In patent publication US10478421B1, “Sortilin binding compounds, formulations, and uses thereof” (University of Florida, priority 2016, dated 2019):
# Key:
# McA cells = experiment: VLDL-B100 secretion by McA cells (immuno slot blotting); format: cell-based, rat; details: for effect on VLDL-B100 secretion: increasing concentrations; for increase in VLDL-B100 secretion over the no cpd984 control: 18 h, 1% BSA/DMEM, insulin sensitive McA cells
# Protocol: McArdle RH-7777 cells (McA cells) were cultured as previously described in serum containing complete Dulbecco's Modified Eagle's Medium (cDMEM). To induce insulin sensitivity, McA cells at 50-60% confluency were incubated for 18 h in serum-free media containing DMEM containing 1% (w/v) BSA (1% BSA/DMEM). Human sortilin (hsortilin) (Ser78-Asn755) with C-terminal 6-His tag was from R&D Systems, Inc., (Minneapolis, Minn.). Plasma from fasted Sprague Dawley rats (BioreclamationIVT, Westbury, N.Y.) was used to prepare VLDL apo B standards. Mouse monoclonal antibody to rat B100 was prepared in our laboratory and characterized previously. Rabbit anti-sortilin antibody was from GeneTex (GTX54854, Irvine, Calif.) or from Abcam (ab16640, Cambridge, Mass.). Rabbit anti-p-AKT (9271), rabbit anti-AKT (9272), and rabbit anti-insulin receptor β-subunit (IRβ, 3025) were from Cell Signaling Technology (Danvers, Mass.). Mouse anti-pY Platinum 4G10 was from EMD Millipore (Temecula, Calif.). (Horseradish peroxidase linked donkey anti-rabbit IgG (NA9340), sheep anti-mouse IgG (NXA931) and ECL Prime Western Blotting Detection Reagent (RPN2232) were from GE Healthcare (Buckinghamshire, UK). All other materials and reagents were essentially as described previously. Compound 98,477,898 (25)-1-methyl-N-{3-[(3-phenylpropanoyl)-amino]phenyl}pyrrolidine-2-carboxamide (cpd984) was obtained from ChemBridge Corp. (San Diego, Calif.). A stock solution of cpd984 (10 mM) was prepared in DMSO, and stored in aliquots at −20° C.
# Experimental media were adjusted to 1% (v/v) protease inhibitor cocktail I (EMD Millipore) and to a salt density of 1.019 g/ml by addition of a solution of NaBr (d=1.495 g/ml). VLDL was isolated by ultracentrifugation in a L-70 Ultracentrifuge (Beckman Coulter, Inc., Fullterton, Calif.) using a 50Ti rotor (200,000×g, 18 h, 14° C.). Following centrifugation, the top 1.5-2.0 ml VLDL fraction was removed using a syringe and weighed to determine volume. VLDL samples were applied in triplicate wells (0.2-0.4 ml per well) in a Bio-Dot® SF apparatus (Bio-Rad). Two PVDF membranes were used together for blotting: the top was Immobilon-P (IPVH09120 SF) and the bottom was Immobilin-PSQ (ISEQ09120 SF); both were obtained from EMD Millipore. VLDL apo B standards were prepared from rat plasma VLDL and total apo B (B100 and B48) and B100 content were determined on stained gels following SDS-PAGE separation. VLDL-apo B standards in TBS were slotted in duplicate alongside test samples. After filtration, 0.4 ml of TBS was added as a wash. […] At this stage slot blots were evaluated similarly to immunoblotting. After chemiluminescence development and B100 quantitation, slot blots were stripped by incubation in Restore™ PLUS for 15 min at room temperature (Thermo Scientific, Rockford, Ill.) and were reblocked overnight at 4° C. Total apo B (B100 and B48) present in VLDL was then evaluated following incubation with rabbit polyclonal anti-rat apo B. The bottom PVDF membrane was carried through the entire procedure to assure there was no “bleed through” of test samples. VLDL-apo B and VLDL-B100 content were calculated from standard curves generated by VLDL apo B standards. […]
# McArdle rat hepatocytes were incubated with increasing concentrations of cpd984 or cpd541 for 14-18 h and media were collected. […] Binding was detected by chemiluminescence detection and quantified using Bio-Rad software. […]
# PCSK9 = experiment: Cellular PCSK9 by immunoblot in McA cells; format: cell-based, rat; details: 10 μM, 18 h, 1% BSA/DMEM
# Protocol: McA cells were incubated in 1% BSA/DMEM with DMSO, 541 (10 μM) or 984 (10 μM) for 18 h. Cellular proteins were extracted and analyzed by IB for LDLR (LS-C146979, 1:2000) (FIG. 5A) or PCSK9 (Ab125251, 1:2000) (FIG. 5B) using HRP-linked secondary antibody and ECL detection. Loading controls included β-ACTIN (Rockland ph600-401-886) and GAPDH (cb1001mAb (6C5). Band intensities were measured using ChemiDocXRS+ system and evaluated using ImageLab 5.1 software (BioRad). Results are average of triplicates ±S.D. PCSK9 is a known ligand for sortilin where sortilin acts as a chaperone for PCSK9 secretion.
# McArdle rat hepatocytes = experiment: VLDL-apo E secretion by McArdle rat hepatocytes (slot blotting); format: cell-based; details: 0.1-25 μM, 14-18 h
# Protocol: McArdle rat hepatocytes were incubated with five media concentrations 0 (no cpd), 1 (0.1 μM), 2 (1 μM), 3 (10 μM) and 4 (25 μM) of cpd984 (FIG. 7A), cpd541 (FIG. 7B), or with a combination of both compounds (FIG. 7C) at indicated concentrations. Hepatocytes were incubated overnight (14-18 h) and media were collected and VLDL-B100 and VLDL-apo E were detected by slot blotting as described above. An anti-rat apoE antibody was used for measurement of VLDL-apo E secretion. Results are the average of triplicate analysis in one study.
Structure (SMILES),effect on VLDL-B100 secretion (McA cells; 14-18 h),effect on cellular PCSK9 (PCSK9),effect on VLDL-apoE secretion (McArdle rat hepatocytes),increase in VLDL-B100 secretion over the no cpd984 control (McA cells; 10 μM),increase in VLDL-B100 secretion over the no cpd984 control (McA cells; 25 μM),"effect of 984 on VLDL-B100 and VLDL-apoE secretion when given in combination with 541 (McA cells; combination of both compounds, 0.1-25 μM, 14-18 h)"
CC(NC(=O)c1ccccc1NCC(=O)O)c1ccccc1 (stereo not drawn) [cpd541],decreases VLDL-B100 secretion,no biological difference,decreases,,,
"CN1CCC[C@H]1C(=O)Nc1cccc(NC(=O)CCc2ccccc2)c1 [cpd984, (2S)-1-methyl-N-{3-[(3-phenylpropanoyl)-amino]phenyl} pyrrolidine-2-carboxamide]",increases VLDL-B100 secretion,accumulation of cellular PCSK9,increases,30%,61%,abrogated
